From ChEMBL document CHEMBL1201862, “PubChem BioAssay data set” (2004)
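Growth conditions: 96-well plates. Treatment: test compound, 48 hours, 5 concentrations. Analysis: linear interpolation between bracketing concentrations; unreached endpoints set to highest concentration. GI50: concentration for 50% inhibition of growth.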 Activity calls are given as the source filed them. Rule as the data show it: active = GI50 up to about 1.1 µM and inactive = higher.

Tests used:
Assay in all cases: NCI tumour cell line growth inhibition, 48 h
HOP-92 = system: HOP-92
TK-10 = system: TK-10
RXF 393 = system: RXF 393
KM12 = system: KM12
OVCAR-8 = system: OVCAR-8
UACC-257 = system: UACC-257
A549 = system: A549
SW-620 = system: SW-620
IGROV-1 = system: IGROV-1
HOP-62 = system: HOP-62
NCI/ADR-RES = system: NCI/ADR-RES
T47D = system: T47D
UO-31 = system: UO-31
K562 = system: K562
U-251 = system: U-251
COLO 205 = system: COLO 205
SK-OV-3 = system: SK-OV-3
OVCAR-5 = system: OVCAR-5
NCI-H460 = system: NCI-H460
HCT-116 = system: HCT-116

Measured: GI50

Cc1cc(O)c(-c2cc(O)c(C)cc2O)cc1O
inactive: HOP-92 2.25 µM | TK-10 5.93 µM | RXF 393 2.38 µM | KM12 12.6 µM | OVCAR-8 3.24 µM | UACC-257 7 µM | A549 17.8 µM | SW-620 2.34 µM | IGROV-1 11.5 µM | HOP-62 16.7 µM | NCI/ADR-RES 26.4 µM | T47D 2.43 µM | UO-31 1.92 µM | K562 1.86 µM | U-251 15 µM | COLO 205 7.16 µM | SK-OV-3 16.8 µM | OVCAR-5 16.6 µM | NCI-H460 18.7 µM | HCT-116 5.55 µM

O=C(CCC(=O)CC(O)(C(F)(F)F)C(F)(F)F)CC(O)(C(F)(F)F)C(F)(F)F
inactive: HOP-92 20.7 µM | TK-10 56.9 µM | RXF 393 > 100 µM | KM12 26.4 µM | OVCAR-8 42.4 µM | UACC-257 34.4 µM | A549 46.8 µM | SW-620 63.5 µM | IGROV-1 29.7 µM | HOP-62 52.5 µM | NCI/ADR-RES 61.7 µM | T47D 29.2 µM | UO-31 23.5 µM | K562 33.4 µM | U-251 65 µM | COLO 205 29.2 µM | SK-OV-3 > 100 µM | OVCAR-5 > 100 µM | NCI-H460 > 10 µM | HCT-116 46.9 µM

COc1ncnc2c1cnn2Cc1cn(CCCCO)nn1
inactive: HOP-92 > 100 µM | TK-10 > 100 µM | RXF 393 > 100 µM | KM12 > 100 µM | OVCAR-8 > 100 µM | UACC-257 > 100 µM | A549 > 100 µM | SW-620 > 100 µM | IGROV-1 > 100 µM | HOP-62 > 100 µM | NCI/ADR-RES > 100 µM | T47D > 100 µM | UO-31 > 100 µM | K562 > 100 µM | U-251 > 100 µM | COLO 205 > 100 µM | SK-OV-3 > 100 µM | OVCAR-5 > 100 µM | NCI-H460 > 100 µM | HCT-116 > 100 µM

CCN(CC)CCn1nc(N)c2nc3cc(Cl)ccc3nc21
inactive: HOP-92 > 100 µM | TK-10 > 100 µM | RXF 393 88.9 µM | KM12 94.8 µM | OVCAR-8 42.4 µM | UACC-257 37.5 µM | A549 49.8 µM | SW-620 63 µM | IGROV-1 16.3 µM | HOP-62 > 100 µM | NCI/ADR-RES 35.3 µM | T47D > 100 µM | UO-31 23.8 µM | K562 40.7 µM | U-251 > 100 µM | COLO 205 35.7 µM | SK-OV-3 > 100 µM | OVCAR-5 89.1 µM | NCI-H460 34.3 µM | HCT-116 48.4 µM

COc1ccc(CC2OC3(CCCCC3)CC3CCCCN32)cc1 (stereo not given)
inactive: HOP-92 98.9 µM | TK-10 > 100 µM | RXF 393 > 100 µM | KM12 > 100 µM | OVCAR-8 40.9 µM | UACC-257 > 100 µM | A549 > 100 µM | SW-620 39.4 µM | IGROV-1 > 100 µM | HOP-62 > 100 µM | NCI/ADR-RES 50.1 µM | T47D > 100 µM | UO-31 > 100 µM | K562 27.1 µM | U-251 > 100 µM | COLO 205 > 100 µM | SK-OV-3 > 100 µM | OVCAR-5 > 100 µM | NCI-H460 > 100 µM | HCT-116 43.8 µM

CS(=O)(=O)OC1CN2CCC1CC2 (stereo not given)
inactive: HOP-92 > 100 µM | TK-10 > 100 µM | RXF 393 > 100 µM | KM12 > 100 µM | OVCAR-8 > 100 µM | UACC-257 > 100 µM | A549 > 100 µM | SW-620 > 100 µM | IGROV-1 > 100 µM | HOP-62 > 100 µM | NCI/ADR-RES > 100 µM | T47D > 100 µM | UO-31 > 100 µM | K562 > 100 µM | U-251 > 100 µM | COLO 205 > 100 µM | SK-OV-3 > 100 µM | OVCAR-5 > 100 µM | NCI-H460 > 100 µM | HCT-116 > 100 µM
